Experimental data reported in ChEMBL document CHEMBL1201862, “PubChem BioAssay data set” (2004).
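A five-concentration, 48-hour dose response in 96-well plates underlies each endpoint, interpolated linearly between surrounding concentrations. GI50: concentration for 50% inhibition of growth.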 The source made the active and inactive calls. Rule as the data show it: active = GI50 up to about 1.1 µM and inactive = higher.

Key:
Experiment in all cases: NCI tumour cell line growth inhibition, 48 h
HCT-116 = test system: HCT-116
HCT-15 = test system: HCT-15
NCI-H460 = test system: NCI-H460
SF-539 = test system: SF-539
LXFL 529 = test system: LXFL 529
A498 = test system: A498
UACC-62 = test system: UACC-62
DU-145 = test system: DU-145
OVCAR-5 = test system: OVCAR-5
MDA-N = test system: MDA-N
CAKI-1 = test system: CAKI-1
SK-MEL-5 = test system: SK-MEL-5
T47D = test system: T47D
UO-31 = test system: UO-31
SR = test system: SR
OVCAR-8 = test system: OVCAR-8
SN12C = test system: SN12C
NCI/ADR-RES = test system: NCI/ADR-RES
MOLT-4 = test system: MOLT-4
SF-268 = test system: SF-268

CC(=O)C(O)N1C(=O)C=CC1=O (stereo not given)
GI50 (HCT-116): 5.61 µM (inactive)
GI50 (HCT-15): 1.84 µM
GI50 (NCI-H460): 3.58 µM (inactive)
GI50 (SF-539): 5.41 µM (inactive)
GI50 (LXFL 529): 1.82 µM (inactive)
GI50 (A498): 18.1 µM (inactive)
GI50 (UACC-62): 16.8 µM (inactive)
GI50 (DU-145): 12.8 µM (inactive)
GI50 (OVCAR-5): 17.1 µM (inactive)
GI50 (MDA-N): 18.6 µM (inactive)
GI50 (CAKI-1): 1.79 µM (inactive)
GI50 (SK-MEL-5): 17.8 µM (inactive)
GI50 (T47D): > 25 µM (inactive)
GI50 (UO-31): 5.86 µM (inactive)
GI50 (SR): 1.99 µM (inactive)
GI50 (OVCAR-8): 6.22 µM (inactive)
GI50 (SN12C): 2.83 µM (inactive)
GI50 (NCI/ADR-RES): 13.2 µM (inactive)
GI50 (MOLT-4): 2.05 µM (inactive)
GI50 (SF-268): 7.05 µM (inactive)
